Structures can show the parent of a compound that is named as a salt.
How the values were obtained:
Type in all cases: biochemical
[1] = target: T1, c-MET kinase (Seq. ID No. 2) (Homo sapiens, UniProt P08581); assay: c-MET kinase assay (pyruvate kinase/lactate dehydrogenase coupled, A340); conditions: enzymatic assay, 0.5 h pre-incubation, ATP 100 μM; read-out: cMET
T1 construct: c-MET (c-MET residues: 956-1390, from Invitrogen, catalogue #PV3143, 6 nM); purchased Invitrogen PV3143
Procedure: Activity of c-MET kinase (Seq. ID No. 2) was determined by following the production of ADP from the kinase reaction through coupling with the pyruvate kinase/lactate dehydrogenase system (e.g., Schindler et al. Science 2000, 289, pp. 1938-1942). In this assay, the oxidation of NADH (thus the decrease at A340 nm) was continuously monitored spectrophotometrically. The reaction mixture (100 μl) contained c-MET (c-MET residues: 956-1390, from Invitrogen, catalogue #PV3143, 6 nM), polyE4Y (1 mg/mL), MgCl2 (10 mM), pyruvate kinase (4 units), lactate dehydrogenase (0.7 units), phosphoenol pyruvate (1 mM), and NADH (0.28 mM) in 90 mM Tris buffer containing 0.25 mM DTT, 0.2% octyl-glucoside and 1% DMSO, pH 7.5. Test compounds were incubated with c-MET (Seq. ID No. 2) and other reaction reagents at 22° C. for 0.5 h before ATP (100 μM) was added to start the reaction. The absorption at 340 nm was monitored continuously for 2 hours at 30° C. on Polarstar Optima plate reader (BMG). The reaction rate was calculated using the 1.0 to 2.0 h time frame. Percent inhibition was obtained by comparison of reaction rate with that of a control (i.e., with no test compound). IC50 values were calculated from a series of percent inhibition values determined at a range of inhibitor concentrations using software routines as implemented in the GraphPad Prism software package.

[2] = target: T2, c-KIT kinase (Seq. ID No. 1) (Homo sapiens, UniProt P10721); assay: c-KIT kinase assay (pyruvate kinase/lactate dehydrogenase coupled, A340); conditions: enzymatic assay, ATP 200 μM; read-out: cKIT
T2 construct: c-KIT (cKIT residues T544-V976, from ProQinase, 5.4 nM); purchased ProQinase
Procedure: Activity of c-KIT kinase (Seq. ID No. 1) was determined by following the production of ADP from the kinase reaction through coupling with the pyruvate kinase/lactate dehydrogenase system (e.g., Schindler et al. Science 2000, 289, pp. 1938-1942). In this assay, the oxidation of NADH (thus the decrease at A340 nm) was continuously monitored spectrophotometrically. The reaction mixture (100 μl) contained c-KIT (cKIT residues T544-V976, from ProQinase, 5.4 nM), polyE4Y (1 mg/mL), MgCl2 (10 mM), pyruvate kinase (4 units), lactate dehydrogenase (0.7 units), phosphoenol pyruvate (1 mM), and NADH (0.28 mM) in 90 mM Tris buffer containing 0.2% octyl-glucoside and 1% DMSO, pH 7.5. Test compounds were incubated with c-KIT (Seq. ID No. 1) and other reaction reagents at 22° C. for less than 2 min before ATP (200 μM) was added to start the reaction. The absorption at 340 nm was monitored continuously for 0.5 hours at 30° C. on Polarstar Optima plate reader (BMG). The reaction rate was calculated using the 0 to 0.5 h time frame. Percent inhibition was obtained by comparison of reaction rate with that of a control (i.e., with no test compound). IC50 values were calculated from a series of percent inhibition values determined at a range of inhibitor concentrations using software routines as implemented in the GraphPad Prism software package.

FMS kinase = target: T3, FMS kinase (Homo sapiens, UniProt P07333); assay: FMS kinase assay (pyruvate kinase/lactate dehydrogenase coupled, A340); conditions: enzymatic assay, ATP 500 μM
T3 construct: purchased Millipore
T3 sequence (P07333 538-972): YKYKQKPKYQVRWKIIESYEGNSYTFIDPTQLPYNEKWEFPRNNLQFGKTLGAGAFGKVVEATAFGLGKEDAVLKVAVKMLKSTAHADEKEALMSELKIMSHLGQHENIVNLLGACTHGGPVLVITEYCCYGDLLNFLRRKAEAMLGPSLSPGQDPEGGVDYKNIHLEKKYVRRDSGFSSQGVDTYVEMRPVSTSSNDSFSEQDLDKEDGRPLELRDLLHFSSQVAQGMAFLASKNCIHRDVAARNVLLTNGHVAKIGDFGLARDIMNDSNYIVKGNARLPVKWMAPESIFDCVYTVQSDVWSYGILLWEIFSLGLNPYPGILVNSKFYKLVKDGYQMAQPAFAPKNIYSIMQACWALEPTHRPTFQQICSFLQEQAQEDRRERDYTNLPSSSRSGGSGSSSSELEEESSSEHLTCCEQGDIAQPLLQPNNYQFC
Procedure: Activity of FMS kinase was determined by following the production of ADP from the FMS kinase reaction with ATP and poly E4Y as substrates through coupling with the pyruvate kinase/lactate dehydrogenase system (e.g., Schindler et al. Science (2000) 289: 1938-1942). In this assay, the oxidation of NADH (thus the decrease at A340 nm) was continuously monitored spectrophometrically. The reaction mixture (100 μl) contained FMS (purchased from Millipore) (10 nM), polyE4Y (1 mg/mL), MgCl2 (10 mM), pyruvate kinase (4 units), lactate dehydrogenase (0.7 units), phosphoenol pyruvate (1 mM), and NADH (0.28 mM) and ATP (500 μM) in 90 mM Tris buffer containing 0.2% octyl-glucoside and 1% DMSO, pH 7.5. Immediately, the inhibition reaction was started by mixing serial diluted test compound with the above reaction mixture. The absorption at 340 nm was monitored continuously for 4 hours at 30° C. on Synergy 2 plate reader. The reaction rate was calculated using the 3 to 4 h time frame. Percent inhibition was obtained by comparison of reaction rate with that of a control (i.e. in the absence of test compound). IC50 values were calculated from a series of percent inhibition values determined at a range of inhibitor concentrations using software routines as implemented in the GraphPad Prism software package.

T1 sequence (P08581 with tags, fused parts or gaps): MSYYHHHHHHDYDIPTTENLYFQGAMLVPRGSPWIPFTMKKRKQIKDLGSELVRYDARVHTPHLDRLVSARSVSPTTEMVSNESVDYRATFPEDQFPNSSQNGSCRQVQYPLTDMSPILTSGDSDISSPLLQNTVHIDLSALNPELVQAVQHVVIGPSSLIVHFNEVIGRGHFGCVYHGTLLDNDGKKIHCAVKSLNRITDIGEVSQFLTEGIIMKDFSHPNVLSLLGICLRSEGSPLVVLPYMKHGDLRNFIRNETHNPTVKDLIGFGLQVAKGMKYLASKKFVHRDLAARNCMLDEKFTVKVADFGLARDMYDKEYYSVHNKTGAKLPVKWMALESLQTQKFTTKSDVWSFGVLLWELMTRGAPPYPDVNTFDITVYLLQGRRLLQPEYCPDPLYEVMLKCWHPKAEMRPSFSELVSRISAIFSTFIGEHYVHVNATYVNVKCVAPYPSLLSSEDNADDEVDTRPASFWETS
T2 sequence (P10721 with tags, fused parts or gaps): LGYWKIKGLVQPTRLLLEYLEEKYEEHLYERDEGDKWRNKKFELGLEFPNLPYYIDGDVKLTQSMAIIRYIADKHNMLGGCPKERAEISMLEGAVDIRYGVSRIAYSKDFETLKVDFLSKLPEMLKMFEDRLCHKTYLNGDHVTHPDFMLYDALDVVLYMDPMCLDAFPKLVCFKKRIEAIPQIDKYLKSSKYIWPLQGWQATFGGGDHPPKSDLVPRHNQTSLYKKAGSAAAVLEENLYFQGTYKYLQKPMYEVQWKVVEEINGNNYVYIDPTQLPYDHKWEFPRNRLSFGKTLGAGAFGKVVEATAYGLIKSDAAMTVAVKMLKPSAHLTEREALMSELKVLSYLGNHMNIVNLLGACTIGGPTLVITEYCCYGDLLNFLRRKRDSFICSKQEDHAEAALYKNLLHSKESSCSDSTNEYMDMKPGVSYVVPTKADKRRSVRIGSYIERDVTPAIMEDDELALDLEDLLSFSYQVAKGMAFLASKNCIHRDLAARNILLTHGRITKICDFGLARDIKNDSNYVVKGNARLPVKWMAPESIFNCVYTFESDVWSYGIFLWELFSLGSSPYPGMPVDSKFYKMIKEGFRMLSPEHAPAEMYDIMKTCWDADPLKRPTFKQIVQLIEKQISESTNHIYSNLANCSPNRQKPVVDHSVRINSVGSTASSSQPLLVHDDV

IC50 [1] [nM] | IC50 [2] [nM] | IC50 (FMS kinase) [nM] | SMILES
≤ 100 | > 1000 | 100 to 1000 | CCOc1ccn(-c2ccc(F)cc2)c(=O)c1C(=O)Nc1cc(F)c(Oc2ccnc(-c3cnn(C)c3)c2)cc1F [Example 2, N-(2,5-difluoro-4-(2-(1-methyl-1H-pyrazol-4-yl)pyridin-4-yloxy)phenyl)-4-ethoxy-1-(4-fluorophenyl)-2-oxo-1,2-dihydropyridine-3-carboxamide]
≤ 100 | > 1000 | ≤ 100 | O=C(Nc1cc(F)c(Oc2ccnc(-c3cnn(CCO)c3)c2)cc1F)c1cccn(-c2ccc(F)cc2)c1=O [Example 3, N-(2,5-difluoro-4-((2-(1-(2-hydroxyethyl)-1H-pyrazol-4-yl)pyridin-4-yl)oxy)phenyl)-1-(4-fluorophenyl)-2-oxo-1,2-dihydropyridine-3-carboxamide hydrochloride]
≤ 100 | ≤ 100 | ≤ 100 | Cn1cc(-c2cc(Oc3cc(F)c(NC(=O)c4cccn(-c5ccc(F)cc5)c4=O)cc3F)ccn2)cn1 [Example 1, N-(2,5-difluoro-4-((2-(1-methyl-1H-pyrazol-4-yl)pyridin-4-yl)oxy)phenyl)-1-(4-fluorophenyl)-2-oxo-1,2-dihydropyridine-3-carboxamide]
≤ 100 | > 1000 | 100 to 1000 | CCNc1ccn(-c2ccc(F)cc2)c(=O)c1C(=O)Nc1cc(F)c(Oc2ccnc(-c3cnn(C)c3)c2)cc1F [Example 5, N-(2,5-difluoro-4-((2-(1-methyl-1H-pyrazol-4-yl)pyridin-4-yl)oxy)phenyl)-4-(ethylamino)-1-(4-fluorophenyl)-2-oxo-1,2-dihydropyridine-3-carboxamide]
